# Values quoted from earlier work, collected in PMC5590095 (Chemical Science, 2017).
# System: tubulin
substance,measurement,value
Celogentin C,inhibitory activity against tubulin polymerization,inhibitory activity against tubulin polymerization
